Reference: patent publication US20240398805A1, “QUINAZOLINE DERIVED COMPOUNDS AS EGFR INHIBITORS AND THEIR USES THEREOF” (ACCUTAR BIOTECHNOLOGY INC., priority 2021, published 2024)

What was measured:
Type in all cases: cell-based
[1] = test system: HCC827 cells; test: Cell growth inhibition (CellTiter-Glo, 3 days) in HCC827; conditions: Homo sapiens, 72 h, 3 days after administration
Procedure, shortened: (§1)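 HCC827 cells in RPMI/10% FBS and A431 cells in DMEM/10% FBS were seeded at 5000 cells/well and left overnight. Compound was then added over a concentration range for 3 days of incubation, and viability was read by CellTiter-Glo luminescence.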

[2] = test system: HCC827-SVD cells (human EGFR exon 20 insertion mutant D770_N771 insSVD); test: Cell growth inhibition (CellTiter-Glo, 3 days) in HCC827-SVD; conditions: 72 h, 3 days after administration
Procedure, shortened: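 HCC827 cells carrying lentiviral codon-optimized EGFR D770_N771 insSVD, with endogenous EGFR knocked out by CRISPR (single clone), seeded at 5000 cells/well in RPMI with 10% FBS. Viability read by CellTiter-Glo luminescence.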

[3] = test system: HCC827-ASV cells (human EGFR exon 20 insertion mutant A769_D770insASV); test: Cell growth inhibition (CellTiter-Glo, 3 days) in HCC827-ASV; conditions: 72 h, 3 days after administration
Procedure, shortened: (§2)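 HCC827 cells lentivirally transduced with codon-optimized ASV or YVMA insertion mutants were seeded at 5000 cells/well in RPMI with 10% FBS and incubated overnight. Compound was added at various concentrations from a 10× stock in medium, with 3 days' incubation. Viability read by CellTiter-Glo luminescence.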

[4] = test system: HCC827-YVMA cells (human ERBB2 exon20 insertion mutant A775_G776ins YVMA); test: Cell growth inhibition (CellTiter-Glo, 3 days) in HCC827-YVMA; conditions: 72 h, 3 days after administration
Procedure, shortened: as §2

[5] = test system: A431 cells; test: Cell growth inhibition (CellTiter-Glo, 3 days) in A431; conditions: Homo sapiens, A-431, 72 h, 3 days after administration
Procedure, shortened: as §1

Structure (SMILES)	GI50 [1]	GI50 [2]	GI50 [3]	GI50 [4]	GI50 [5]
C=CC(=O)N1CCC(Nc2cc3c(Nc4ccc(Oc5ccnc(N6CCC[C@@H](O)C6)c5)cc4F)ncnc3cc2OC)CC1 [Example 214, (R)-1-(4-((4-((2-fluoro-4-((2-(3-hydroxypiperidin-1-yl)pyridin-4-yl)oxy)phenyl)amino)-7-methoxyquinazolin-6-yl)amino)piperidin-1-yl)prop-2-en-1-one]	300 to 600 nM	30 to 60 nM	< 30 nM	< 30 nM	≥ 1000 nM
C=CC(=O)N1CCC(Nc2cc3c(Nc4ccc(Oc5ccnc(CN6CCCC6)c5)cc4F)ncnc3cc2OC)CC1 [Example 209, 1-(4-((4-((2-fluoro-4-((2-(pyrrolidin-1-ylmethyl)pyridin-4-yl)oxy)phenyl)amino)-7-methoxyquinazolin-6-yl)amino)piperidin-1-yl)prop-2-en-1-one]	100 to 300 nM	100 to 300 nM	100 to 300 nM	60 to 100 nM	600 to 1000 nM
C=CC(=O)N1CCC(Nc2cc3c(Nc4ccc(Oc5ccnc(N6C[C@@H](C)O[C@@H](C)C6)c5)cc4F)ncnc3cc2OC)CC1 [Compound 101, 1-(4-((4-((4-((2-((2R,6S)-2,6-dimethylmorpholino)pyridin-4-yl)oxy)-2-fluorophenyl)amino)-7-methoxyquinazolin-6-yl)amino)piperidin-1-yl)prop-2-en-1-one]	60 to 100 nM	< 30 nM	< 30 nM	< 30 nM	≥ 1000 nM
C=CC(=O)N1CCC(Nc2cc3c(Nc4ccc(Oc5ccnc(N6CCCC6)c5)cc4F)ncnc3cc2OC)CC1 [Example 102, 1-(4-((4-((2-fluoro-4-((2-(pyrrolidin-1-yl)pyridin-4-yl)oxy)phenyl)amino)-7-methoxyquinazolin-6-yl)amino)piperidin-1-yl)prop-2-en-1-one]	100 to 300 nM	60 to 100 nM	100 to 300 nM	100 to 300 nM	100 to 300 nM
C=CC(=O)N1CCC(Nc2cc3c(Nc4ccc(Oc5ccnc(-c6nc(C)ns6)c5)cc4F)ncnc3cc2OC)CC1 [Example 192, 1-(4-((4-((2-fluoro-4-((2-(3-methyl-1,2,4-thiadiazol-5-yl)pyridin-4-yl)oxy)phenyl)amino)-7-methoxyquinazolin-6-yl)amino)piperidin-1-yl)prop-2-en-1-one]	60 to 100 nM	< 30 nM	< 30 nM	< 30 nM	100 to 300 nM
C=CC(=O)N1CCC(Nc2cc3c(Nc4ccc(Oc5nc(-c6ccc(OC)nc6)cs5)cc4F)ncnc3cc2OC)CC1 [Example 55, 1-(4-((4-((2-fluoro-4-((4-(6-methoxypyridin-3-yl)thiazol-2-yl)oxy)phenyl)amino)-7-methoxyquinazolin-6-yl)amino)piperidin-1-yl)prop-2-en-1-one]	< 30 nM	< 30 nM	< 30 nM	< 30 nM	100 to 300 nM
C=CC(=O)N1CCC(Nc2cc3c(Nc4ccc(Oc5nc(-c6cnc(C)c(F)c6)cs5)cc4F)ncnc3cc2OC)CC1 [Example 94, 1-(4-((4-((2-fluoro-4-((4-(5-fluoro-6-methylpyridin-3-yl)thiazol-2-yl)oxy)phenyl)amino)-7-methoxyquinazolin-6-yl)amino)piperidin-1-yl)prop-2-en-1-one]	30 to 60 nM	100 to 300 nM	30 to 60 nM	30 to 60 nM	≥ 1000 nM
C=CC(=O)N1CCC(Nc2cc3c(Nc4ccc(Oc5ccn(-c6ccc(C)cn6)n5)c(Cl)c4)ncnc3cc2OC)CC1 [Compound 16]	< 30 nM	< 30 nM	< 30 nM	< 30 nM	300 to 600 nM
C=CC(=O)N1CCC(Nc2cc3c(Nc4ccc(Oc5ccnc(N6CCC(O)C(F)(F)C6)c5)cc4F)ncnc3cc2OC)CC1 (centres unmarked) [Example 172, 1-(4-((4-((4-((2-(3,3-difluoro-4-hydroxypiperidin-1-yl)pyridin-4-yl)oxy)-2-fluorophenyl)amino)-7-methoxyquinazolin-6-yl)amino)piperidin-1-yl)prop-2-en-1-one]	300 to 600 nM	< 30 nM	< 30 nM	< 30 nM	600 to 1000 nM
C=CC(=O)N1CCC(Nc2cc3c(Nc4ccc(Oc5ccnc(N6CCOC[C@@H]6CO)c5)cc4F)ncnc3cc2OC)CC1 [Example 127, (S)-1-(4-((4-((2-fluoro-4-((2-(3-(hydroxymethyl)morpholino)pyridin-4-yl)oxy)phenyl)amino)-7-methoxyquinazolin-6-yl)amino)piperidin-1-yl)prop-2-en-1-one]	600 to 1000 nM	100 to 300 nM	100 to 300 nM	100 to 300 nM	≥ 1000 nM
C=CC(=O)N1CCC(Nc2cc3c(Nc4ccc(Oc5ccnc(N6CCC(F)(F)CC6)c5)cc4F)ncnc3cc2OC)CC1 [Example 218, 1-(4-((4-((4-((2-(4,4-difluoropiperidin-1-yl)pyridin-4-yl)oxy)-2-fluorophenyl)amino)-7-methoxyquinazolin-6-yl)amino)piperidin-1-yl)prop-2-en-1-one]	100 to 300 nM	30 to 60 nM	30 to 60 nM	30 to 60 nM	≥ 1000 nM
C=CC(=O)N1CCC(Nc2cc3c(Nc4ccc(Oc5ccnc(N6CCC(C(F)(F)F)C6)c5)cc4F)ncnc3cc2OC)CC1 (centres unmarked) [Compound 150, 1-(4-((4-((2-fluoro-4-((2-(3-(trifluoromethyl)pyrrolidin-1-yl)pyridin-4-yl)oxy)phenyl)amino)-7-methoxyquinazolin-6-yl)amino)piperidin-1-yl)prop-2-en-1-one]	< 30 nM	< 30 nM	< 30 nM	< 30 nM	100 to 300 nM
C=CC(=O)N1CCC(Nc2cc3c(Nc4ccc(Oc5ccnc(N6CC(NC(C)=O)C6)c5)cc4F)ncnc3cc2OC)CC1 [Example 145, N-(1-(4-(4-((6-((1-acryloylpiperidin-4-yl)amino)-7-methoxyquinazolin-4-yl)amino)-3-fluorophenoxy)pyridin-2-yl)azetidin-3-yl)acetamide]	≥ 1000 nM	≥ 1000 nM	≥ 1000 nM	≥ 1000 nM	≥ 1000 nM
C=CC(=O)N1CCC(Nc2cc3c(Nc4ccc(Oc5ccnc(N6CCN(C)CC6)c5)cc4)ncnc3cc2OC)CC1 [Example 231, 1-(4-((7-methoxy-4-((4-((2-(4-methylpiperazin-1-yl)pyridin-4-yl)oxy)phenyl)amino)quinazolin-6-yl)amino)piperidin-1-yl)prop-2-en-1-one]	≥ 1000 nM	300 to 600 nM	100 to 300 nM	100 to 300 nM	≥ 1000 nM
C=CC(=O)N1CCC(Nc2cc3c(Nc4ccc(Oc5ccnc(N6C[C@@H](OC)[C@H](OC)C6)c5)cc4F)ncnc3cc2OC)CC1 [Example 255, 1-(4-((4-((4-((2-((3R,4R)-3,4-dimethoxypyrrolidin-1-yl)pyridin-4-yl)oxy)-2-fluorophenyl)amino)-7-methoxyquinazolin-6-yl)amino)piperidin-1-yl)prop-2-en-1-one]	300 to 600 nM	< 30 nM	< 30 nM	< 30 nM	≥ 1000 nM
C=CC(=O)N1CCC(Nc2cc3c(Nc4ccc(Oc5ccc(N6C[C@@H](C)O[C@@H](C)C6)cn5)cc4F)ncnc3cc2OC)CC1 [Example 111, 1-(4-((4-((4-((5-((2R,6S)-2,6-dimethylmorpholino)pyridin-2-yl)oxy)-2-fluorophenyl)amino)-7-methoxyquinazolin-6-yl)amino)piperidin-1-yl)prop-2-en-1-one]	30 to 60 nM	300 to 600 nM	300 to 600 nM	300 to 600 nM	600 to 1000 nM
C=CC(=O)N1CCC(Nc2cc3c(Nc4ccc(Oc5ccnc(N6CC(C)(OC)C6)c5)cc4F)ncnc3cc2OC)CC1 [Example 207, 1-(4-((4-((2-fluoro-4-((2-(3-methoxy-3-methylazetidin-1-yl)pyridin-4-yl)oxy)phenyl)amino)-7-methoxyquinazolin-6-yl)amino)piperidin-1-yl)prop-2-en-1-one]	30 to 60 nM	< 30 nM	< 30 nM	< 30 nM	100 to 300 nM
C=C(F)C(=O)N1CCC(Nc2cc3c(Nc4ccc(Oc5ccn(-c6cnc(C)c(F)c6)n5)cc4F)ncnc3cc2OC)CC1 [Example 23, 2-fluoro-1-(4-((4-((2-fluoro-4-((1-(5-fluoro-6-methylpyridin-3-yl)-1H-pyrazol-3-yl)oxy)phenyl)amino)-7-methoxyquinazolin-6-yl)amino)piperidin-1-yl)prop-2-en-1-one]	≥ 1000 nM	≥ 1000 nM	≥ 1000 nM	600 to 1000 nM	≥ 1000 nM
C=CC(=O)N1CCC(Nc2cc3c(Nc4ccc(Oc5ccn(-c6cc(F)c(C)cn6)n5)c(Cl)c4)ncnc3cc2OC)CC1 [Example 17, 1-(4-((4-((3-chloro-4-((1-(4-fluoro-5-methylpyridin-2-yl)-1H-pyrazol-3-yl)oxy)phenyl)amino)-7-methoxyquinazolin-6-yl)amino)piperidin-1-yl)prop-2-en-1-one]	60 to 100 nM	100 to 300 nM	600 to 1000 nM	600 to 1000 nM	100 to 300 nM
